The values that follow come from PubChem BioAssay (NCI).

The structures appear in SMILES notation. Converted amounts (≈) assume the structure as drawn.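 Cells were grown in 96-well plates and exposed to each compound for 48 hours at five concentrations; endpoints were interpolated linearly between bracketing concentrations, or set to the highest concentration if not reached. GI50 = concentration required for 50% inhibition of growth. At the TGI there is no net growth.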

Among the test systems are CAKI-1 renal; HCC-2998 colon; HOP-62 NSCLC; OVCAR-4 ovarian; RXF 393 renal; SF-539 CNS; SW-620 colon; TK-10 renal; NCI/ADR-RES ovarian.
Assay in all cases: NCI-60 cell line screen, 48 h

Consider `CN(C)CCC1(C2=CCCC2)CC/C(=C\c2ccccc2)C1=O` (stereo unspecified), for which the TGI in the test on CAKI-1 renal is 26.3 µM; with HCC-2998 colon, 29.2 µM; with HOP-62 NSCLC it was 30 µM; in the test with OVCAR-4 ovarian, 31 µM; in the test on RXF 393 renal it was 26.6 µM; in the test on SF-539 CNS, 30.5 µM. Moreover, the results for the TGI in the test on SW-620 colon and in the test on TK-10 renal were 32.2 µM and 29 µM, respectively.

For `CC1=NN(C(=O)Cc2ccccc2)C(=O)/C1=C\c1ccco1`, the TGI in the test with CAKI-1 renal, with HCC-2998 colon, in the test on HOP-62 NSCLC, in the test with OVCAR-4 ovarian, in the test with SF-539 CNS and in the test on SW-620 colon was greater than 100 µM in each case. Further, in the test on TK-10 renal, the TGI was greater than 100 µM.

As to `NC(N)=Nc1nc2ccccc2[nH]1`, the GI50 in the test with CAKI-1 renal was 48.8 µg/mL; in the test with HCC-2998 colon, 34.1 µg/mL; in the test with HOP-62 NSCLC, 43.4 µg/mL; in the test with NCI/ADR-RES ovarian it was 6.44 µg/mL (≈ 36.8 µM); in the test on OVCAR-4 ovarian, 22.1 µg/mL (≈ 126 µM); with RXF 393 renal it was 72.5 µg/mL. In addition, the GI50 in the test on SF-539 CNS is 33.7 µg/mL (≈ 192 µM); in the test on SW-620 colon, 60.6 µg/mL. Moreover, the TGI is greater than 150 µg/mL with CAKI-1 renal; greater than 150 µg/mL in the test on HCC-2998 colon; 124 µg/mL with HOP-62 NSCLC; greater than 150 µg/mL with NCI/ADR-RES ovarian; 55.5 µg/mL in the test on OVCAR-4 ovarian; greater than 150 µg/mL in the test on RXF 393 renal. Also, the TGI with SF-539 CNS and with SW-620 colon was greater than 150 µg/mL in each case.

As to `COc1ccc([C@@H]2CC(=O)NCCCCNCCCN2)cc1`, the TGI with CAKI-1 renal, in the test on HOP-62 NSCLC, with OVCAR-4 ovarian, with RXF 393 renal, with SF-539 CNS and with SW-620 colon was greater than 100 µM each time. The same compound yielded a TGI with TK-10 renal greater than 100 µM.

On to `BrC12c3ccccc3Sc3ccccc3C1(Br)c1ccccc12` (stereo unspecified), for which the TGI was 72.9 µM in the test with CAKI-1 renal; greater than 100 µM in the test on HCC-2998 colon; 42.9 µM with HOP-62 NSCLC; greater than 100 µM in the test on OVCAR-4 ovarian; greater than 100 µM in the test on RXF 393 renal; 34.6 µM in the test on SF-539 CNS. Also, the TGI in the test with SW-620 colon was greater than 100 µM; in the test on TK-10 renal, 99.6 µM.

Consider `CCOC(=O)/C=C/c1ccccn1`, for which the TGI in the test on CAKI-1 renal, in the test on HCC-2998 colon, in the test with HOP-62 NSCLC, in the test on OVCAR-4 ovarian, with SF-539 CNS and in the test with SW-620 colon was greater than 100 µM throughout. Also, in the test on TK-10 renal, the TGI is greater than 100 µM.

Take `CC(=O)NC(CCCCNC(=O)N(C)N=O)C(=O)NCc1ccccc1` (stereo unspecified): the TGI in the test on CAKI-1 renal, with HCC-2998 colon, with HOP-62 NSCLC, with OVCAR-4 ovarian, in the test with RXF 393 renal and in the test on SF-539 CNS was greater than 100 µM throughout. Besides, the TGI with SW-620 colon and in the test with TK-10 renal was greater than 100 µM each time.

As for `COc1cc([C@@H]2c3cc4c(c(O)c3C[C@H]3COC(=O)[C@@H]32)OCO4)cc(OC)c1O`, the GI50 is 0.00611 µM in the test on CAKI-1 renal; 0.0283 µM in the test with HCC-2998 colon; 0.00487 µM in the test on HOP-62 NSCLC; 0.00215 µM in the test with RXF 393 renal; 0.00397 µM in the test with SW-620 colon. The TGI was less than 0.02 µM in the test with CAKI-1 renal; 2 µM in the test with HCC-2998 colon; greater than 200 µM in the test on HOP-62 NSCLC; greater than 200 µM with OVCAR-4 ovarian; greater than 200 µM in the test on SW-620 colon.

Take `N#Cc1c2nc3ccccc3nc2n2ccc3ccccc3c12`: the TGI with HCC-2998 colon, with OVCAR-4 ovarian, with SF-539 CNS and in the test on TK-10 renal was greater than 100 µM in each case.

Consider `COC(=O)NN1C(C)=C(C(=O)OC)C2(CCOC2=O)C1(C)O` (stereo unspecified), for which the TGI in the test on CAKI-1 renal, in the test with HCC-2998 colon, with HOP-62 NSCLC, in the test on OVCAR-4 ovarian, in the test on SF-539 CNS and with SW-620 colon was greater than 100 µM each time. Moreover, in the test on TK-10 renal, the TGI is greater than 100 µM.

`Cc1ccc(C2=C(c3ccccc3)C(O)(c3ccc(C)cc3)C(c3ccccc3)=C2c2ccc(C)cc2)cc1`: the TGI in the test on CAKI-1 renal, in the test with HCC-2998 colon, with HOP-62 NSCLC, in the test on OVCAR-4 ovarian, in the test on SF-539 CNS and with SW-620 colon was greater than 100 µM throughout. This compound yielded a TGI with TK-10 renal greater than 100 µM.

Turning to `S=C(Nc1ccccc1)N1N=C2c3ccccc3CC[C@H]2[C@@H]1c1ccccc1`, the TGI in the test with HCC-2998 colon, in the test on HOP-62 NSCLC, in the test with OVCAR-4 ovarian, in the test on RXF 393 renal, in the test with SF-539 CNS and in the test with SW-620 colon was greater than 100 µM each time. In the test with TK-10 renal, this compound displayed a TGI greater than 100 µM.

Turning to `O=c1/c(=C/c2ccc3c(c2)OCO3)sc2nnc(-c3ccco3)n12`, the TGI in the test on CAKI-1 renal, in the test on HCC-2998 colon, with HOP-62 NSCLC, in the test with OVCAR-4 ovarian, in the test with RXF 393 renal and with SF-539 CNS was greater than 100 µM throughout. Besides, the TGI in the test with SW-620 colon and with TK-10 renal was greater than 100 µM throughout.

With `c1ccc(C2N3CCCCC3[C@@H]3c4[nH]c5ccccc5c4CCN23)cc1` (stereo partly specified), the TGI in the test on CAKI-1 renal is greater than 100 µM; with HCC-2998 colon, greater than 100 µM; in the test with HOP-62 NSCLC, greater than 100 µM; with OVCAR-4 ovarian, 75.6 µM; in the test with RXF 393 renal, greater than 100 µM; in the test with SF-539 CNS it was greater than 100 µM. Moreover, the TGI in the test with SW-620 colon and in the test with TK-10 renal was greater than 100 µM each time.

As to `Cc1cc(NCCCCCCNc2cc(C)nc3ccc(Cl)cc23)c2cc(Cl)ccc2n1`, the TGI in the test with CAKI-1 renal was greater than 100 µM; with HCC-2998 colon, 30.3 µM; with HOP-62 NSCLC it was greater than 100 µM; in the test with OVCAR-4 ovarian it was 34.8 µM; with RXF 393 renal it was 30.6 µM; in the test on SF-539 CNS it was 29.4 µM. The compound also registered a TGI in the test on TK-10 renal of 62.1 µM.

With `O=C(Nc1c(Cl)cc([N+](=O)[O-])cc1Cl)/C(=N\Nc1cccc(Cl)c1)c1c(O)c2ccccc2oc1=O`, the TGI in the test with HCC-2998 colon, in the test on HOP-62 NSCLC, with OVCAR-4 ovarian, with RXF 393 renal, in the test on SF-539 CNS and in the test with SW-620 colon was greater than 100 µM throughout. This compound came in with a TGI with TK-10 renal greater than 100 µM.
